# Molecular target: T1, α-glucosidase (Saccharomyces cerevisiae, UniProt P53341)
# T1 construct: purchased Sigma Inc
# Experiment: α-glucosidase inhibition assay
# Type: biochemical
# Settings: 50 mM phosphate buffer pH 6.8; 0.057 units enzyme; standard acarbose
# Description: The α-glucosidase activity was executed according to Fazal et al.. The following chemicals were used (concentrations): • 70 μL of 50 mM phosphate buffer (pH 6.8); • 10 μL (0.5 mM in methanol) test compounds; and • 10 μL (0.057 units, Sigma Inc.) of enzyme solution in buffer. For details on the experiment, kindly see Reference.
# T1 sequence (P53341 whole entry): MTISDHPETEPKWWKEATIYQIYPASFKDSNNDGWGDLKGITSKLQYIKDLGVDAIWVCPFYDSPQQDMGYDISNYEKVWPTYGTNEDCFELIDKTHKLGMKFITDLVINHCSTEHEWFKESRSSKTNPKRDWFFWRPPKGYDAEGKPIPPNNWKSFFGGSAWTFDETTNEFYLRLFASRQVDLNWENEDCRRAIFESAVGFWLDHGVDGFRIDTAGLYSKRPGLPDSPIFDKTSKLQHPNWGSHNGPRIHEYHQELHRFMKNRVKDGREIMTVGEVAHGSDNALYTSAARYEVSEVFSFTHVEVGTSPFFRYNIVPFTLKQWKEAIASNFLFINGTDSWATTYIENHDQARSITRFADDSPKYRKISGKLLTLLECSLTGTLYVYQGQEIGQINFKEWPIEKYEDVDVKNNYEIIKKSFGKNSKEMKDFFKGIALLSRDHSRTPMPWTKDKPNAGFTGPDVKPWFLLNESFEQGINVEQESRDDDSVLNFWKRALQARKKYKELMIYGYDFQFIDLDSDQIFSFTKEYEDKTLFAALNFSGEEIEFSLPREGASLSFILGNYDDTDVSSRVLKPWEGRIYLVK
row,SMILES,IC50 [µM]
1,"Cc1ccc(NC(=S)NN=C(CSc2nnc3c(n2)[nH]c2ccccc23)c2ccc(C)cc2)cc1 [Compound 8, 2-(2-((5H-[1,2,4]triazino[5,6-b]indol-3-yl)thio)-1-(p-tolyl)ethylidene)-N-(p-tolyl)hydrazine-1-carbothioamide]",17.5 ± 0.3
2,"S=C(NN=C(CSc1nnc2c(n1)[nH]c1ccccc12)c1ccc(-c2ccccc2)cc1)Nc1ccccc1 [Compound 24, 2-(2-((5H-[1,2,4]triazino[5,6-b]indol-3-yl)thio)-1-([1,1′-biphenyl]-4-yl)ethylidene)-N-phenylhydrazine-1-carbothioamide]",15.3 ± 0.3
3,"Cc1ccc(NC(=S)NN=C(CSc2nnc3c(n2)[nH]c2ccccc23)c2cccc([N+](=O)[O-])c2)cc1 [Compound 12, 2-(2-((5H-[1,2,4]triazino[5,6-b]indol-3-yl)thio)-1-(3-nitrophenyl)ethylidene)-N-(p-tolyl)hydrazine-1-carbothioamide]",8.3 ± 0.2
4,"S=C(NN=C(CSc1nnc2c(n1)[nH]c1ccccc12)c1ccc(-c2ccccc2)cc1)Nc1ccc(Cl)c(Cl)c1 [Compound 19, 2-(2-((5H-[1,2,4]triazino[5,6-b]indol-3-yl)thio)-1-([1,1′-biphenyl]-4-yl)ethylidene)-N-(3,4-dichlorophenyl)hydrazine-1-carbothioamide]",2.3 ± 0.05
5,"Cc1cccc(C)c1NC(=S)NN=C(CSc1nnc2c(n1)[nH]c1ccccc12)c1ccc(-c2ccccc2)cc1 [Compound 13, 2-(2-((5H-[1,2,4]triazino[5,6-b]indol-3-yl)thio)-1-([1,1′-biphenyl]-4-yl)ethylidene)-N-(2,6-dimethylphenyl)hydrazine-1-carbothioamide]",23.3 ± 0.5
6,"COc1ccc(C(CSc2nnc3c(n2)[nH]c2ccccc23)=NNC(=S)Nc2ccc([N+](=O)[O-])cc2)cc1 [Compound 2, 2-(2-((5H-[1,2,4]triazino [5,6-b]indol-3-yl)thio)-1-(4-methoxyphenyl)ethylidene)-N-(4-nitrophenyl)hydrazine-1-carbothioamide]",2.6 ± 0.05
7,"S=C(NN=C(CSc1nnc2c(n1)[nH]c1ccccc12)c1ccc(-c2ccccc2)cc1)Nc1ccccc1Br [Compound 6, 2-(2-((5H-[1,2,4]triazino[5,6-b]indol-3-yl)thio)-1-([1,1′-biphenyl]-4-yl)ethylidene)-N-(2-bromophenyl)hydrazine-1-carbothioamide]",25.3 ± 0.5
8,"Cc1ccc(C(CSc2nnc3c(n2)[nH]c2ccccc23)=NNC(=S)Nc2ccc(Cl)c(Cl)c2)cc1 [Compound 21, 2-(2-((5H-[1,2,4]triazino[5,6-b]indol-3-yl)thio)-1-(p-tolyl)ethylidene)-N-(3,4-dichlorophenyl)hydrazine-1-carbothioamide]",4.8 ± 0.2
9,"Cc1ccc(C(CSc2nnc3c(n2)[nH]c2ccccc23)=NNC(=S)Nc2c(C)cccc2C)cc1 [Compound 20, 2-(2-((5H-[1,2,4]triazino[5,6-b]indol-3-yl)thio)-1-(p-tolyl)ethylidene)-N-(2,6-dimethylphenyl)hydrazine-1-carbothioamide]",7.5 ± 0.2
10,"COc1ccc(C(CSc2nnc3c(n2)[nH]c2ccccc23)=NNC(=S)Nc2ccccc2)cc1 [Compound 25, 2-(2-((5H-[1,2,4]triazino[5,6-b]indol-3-yl)thio)-1-(4-methoxyphenyl)ethylidene)-N-phenylhydrazine-1-carbothioamide]",9.3 ± 0.3
11,"COc1ccc(C(CSc2nnc3c(n2)[nH]c2ccccc23)=NNC(=S)Nc2c(C)cccc2C)cc1 [Compound 15, 2-(2-((5H-[1,2,4]triazino[5,6-b]indol-3-yl)thio)-1-(4-methoxyphenyl)ethylidene)-N-(2,6-dimethylphenyl)hydrazine-1-carbothioamide]",5.8 ± 0.2
12,"O=[N+]([O-])c1ccc(C(CSc2nnc3c(n2)[nH]c2ccccc23)=NNC(=S)Nc2ccccc2)cc1 [Compound 9, 2-(2-((5H-[1,2,4]triazino[5,6-b]indol-3-yl)thio)-1-(4-nitrophenyl)ethylidene)-N-phenylhydrazine-1-carbothioamide]",6.8 ± 0.1
13,"Cc1cccc(C)c1NC(=S)NN=C(CSc1nnc2c(n1)[nH]c1ccccc12)c1cccc([N+](=O)[O-])c1 [Compound 14, 2-(2-((5H-[1,2,4]triazino[5,6-b]indol-3-yl)thio)-1-(3-nitrophenyl)ethylidene)-N-(2,6-dimethylphenyl)hydrazine-1-carbothioamide]",7.5 ± 0.2
14,"O=[N+]([O-])c1cccc(C(CSc2nnc3c(n2)[nH]c2ccccc23)=NNC(=S)Nc2cccc(Cl)c2Cl)c1 [Compound 23, 2-(2-((5H-[1,2,4]triazino[5,6-b]indol-3-yl)thio)-1-(3-nitrophenyl)ethylidene)-N-(2,3-dichlorophenyl)hydrazine-1-carbothioamide]",1.3 ± 0.01
15,"COc1ccc(C(CSc2nnc3c(n2)[nH]c2ccccc23)=NNC(=S)Nc2ccccc2Br)cc1 [Compound 10, 2-(2-((5H-[1,2,4]triazino[5,6-b]indol-3-yl)thio)-1-(4-methoxyphenyl)ethylidene)-N-(2-bromophenyl)hydrazine-1-carbothioamide]",35.8 ± 0.8
16,"COc1ccc(C(CSc2nnc3c(n2)[nH]c2ccccc23)=NNC(=S)Nc2ccc(Cl)c(Cl)c2)cc1 [Compound 18, 2-(2-((5H-[1,2,4]triazino[5,6-b]indol-3-yl)thio)-1-(4-methoxyphenyl)ethylidene)-N-(3,4-dichlorophenyl)hydrazine-1-carbothioamide]",2.3 ± 0.05
17,"COc1ccc(C(CSc2nnc3c(n2)[nH]c2ccccc23)=NNC(=S)Nc2cccc(C)c2C)cc1 [Compound 22, 2-(2-((5H-[1,2,4]triazino[5,6-b]indol-3-yl)thio)-1-(4-methoxyphenyl)ethylidene)-N-(2,3-dimethylphenyl)hydrazine-1-carbothioamide]",5.9 ± 0.1
18,"Cc1ccc(C(CSc2nnc3c(n2)[nH]c2ccccc23)=NNC(=S)Nc2ccccc2Br)cc1 [Compound 7, 2-(2-((5H-[1,2,4]triazino[5,6-b]indol-3-yl)thio)-1-(p-tolyl)ethylidene)-N-(2-bromophenyl)hydrazine-1-carbothioamide]",33.3 ± 0.6
19,"Cc1ccc(NC(=S)NN=C(CSc2nnc3c(n2)[nH]c2ccccc23)c2ccc(-c3ccccc3)cc2)cc1 [Compound 4, 2-(2-((5H-[1,2,4]triazino[5,6-b]indol-3-yl)thio)-1-([1,1′-biphenyl]-4-yl)ethylidene)-N-(p-tolyl)hydrazine-1-carbothioamide]",12.8 ± 0.3
20,"S=C(NN=C(CSc1nnc2c(n1)[nH]c1ccccc12)c1ccc(-c2ccccc2)cc1)Nc1cccc(Cl)c1Cl [Compound 3, 2-(2-((5H-[1,2,4]triazino [5,6-b]indol-3-yl)thio)-1-([1,1′-biphenyl]-4-yl)ethylidene)-N-(2,3-dichlorophenyl)hydrazine-1-carbothioamide]",7.5 ± 0.2
21,"COc1ccc(C(CSc2nnc3c(n2)[nH]c2ccccc23)=NNC(=S)Nc2ccc(F)cc2)cc1 [Compound 16, 2-(2-((5H-[1,2,4]triazino[5,6-b]indol-3-yl)thio)-1-(4-methoxyphenyl)ethylidene)-N-(4-fluorophenyl)hydrazine-1-carbothioamide]",1.8 ± 0.2
22,"COc1ccc(C(CSc2nnc3c(n2)[nH]c2ccccc23)=NNC(=S)Nc2cccc(Cl)c2Cl)cc1 [Compound 1, 2-(2-((5H-[1,2,4]triazino [5,6-b]indol-3-yl)thio)-1-(4-methoxyphenyl)ethylidene)-N-(2,3-dichlorophenyl)hydrazine-1-carbothioamide]",1.3 ± 0.05
23,"O=[N+]([O-])c1cccc(C(CSc2nnc3c(n2)[nH]c2ccccc23)=NNC(=S)Nc2ccccc2)c1 [Compound 17, 2-(2-((5H-[1,2,4]triazino[5,6-b]indol-3-yl)thio)-1-(3-nitrophenyl)ethylidene)-N-phenylhydrazine-1-carbothioamide]",8.8 ± 0.2
24,"O=[N+]([O-])c1cccc(C(CSc2nnc3c(n2)[nH]c2ccccc23)=NNC(=S)Nc2ccccc2Br)c1 [Compound 11, 2-(2-((5H-[1,2,4]triazino[5,6-b]indol-3-yl)thio)-1-(3-nitrophenyl)ethylidene)-N-(2-bromophenyl)hydrazine-1-carbothioamide]",26.8 ± 0.7
25,"COc1ccc(C(CSc2nnc3c(n2)[nH]c2ccccc23)=NNC(=S)Nc2ccc(C)cc2)cc1 [Compound 5, 2-(2-((5H-[1,2,4]triazino[5,6-b]indol-3-yl)thio)-1-(4-methoxyphenyl)ethylidene)-N-(p-tolyl)hydrazine-1-carbothioamide]",5.2 ± 0.3
